Source: US11078215B2, “Crystalline forms of lorlatinib maleate” (Pfizer Inc., priority 2016, dated 2021)
Counter-ions that a name gives are not always drawn.

Key:
[1] = Slurry experiments, thermodynamic stability of anhydrous lorlatinib maleate (Form 1); assay type: physicochemical
Experimental: The thermodynamic stability of anhydrous lorlatinib maleate (Form 1) and lorlatinib maleate hydrate (Form 2) was evaluated employing slurry experiments under a range of water activity and temperature conditions. Suspensions of Form 1 were equilibrated for two weeks in acetonitrile/water and methanol/water solvent systems with water activities (Aw) in the range of 0.1 to 0.9, at three different temperatures: 5° C., room temperature and 40° C. After 2 weeks, the solids in equilibrium were isolated and solid form was evaluated by PXRD.
Even a minimal amount of water (Aw=0.1) was sufficient to cause conversion of Form 1 to Form 2.

[2] = Physical stability of Form 1 in excipient mixtures and tablets at 50° C./75% RH, PXRD; assay type: physicochemical; conditions: for Output Solid Form: 1 week
Experimental: Binary and tertiary mixtures of Form 1 with various excipients were stored at 50° C./75% RH and solid form changes were monitored using PXRD.

[3] = as above; assay type: physicochemical; conditions: 2 weeks
[4] = Slurry experiments, thermodynamic stability of anhydrous lorlatinib maleate (Form 1); assay type: physicochemical; conditions: 2 weeks
[5] = Solid-state physical stability of Form 1 API at temperature/% RH, form checked by PXRD; assay type: physicochemical; conditions: for Solid Form (accelerated stability, PXRD): API
Text: The physical stability of anhydrous lorlatinib maleate (Form 1) API was investigated at a variety of temperatures and percent relative humidities (% RH). […]

[6] = Physical stability of Form 1 drug product vs. acetic acid solvate drug product
Text: The physical stabilities of Form 1 and lorlatinib acetic acid solvate as drug product were investigated under a variety of conditions.

In the case of `C[C@H]1Oc2cc(cnc2N)-c2c(nn(C)c2C#N)CN(C)C(=O)c2ccc(F)cc21` [anhydrous lorlatinib maleate (Form 1), Anhydrous (10R)-7-amino-12-fluoro-2,10,16-trimethyl-15-oxo-10,15,16,17-tetrahydro-2H-8,4-(metheno)pyrazolo[4,3-h][2,5,11]benzoxadiazacyclotetradecine-3-carbonitrile (PF-06463922) Maleate (Form 1)], the “Slurry output, solid form by PXRD” value ([1]; acetonitrile, Aw 0, 5° C., 2 weeks) is reported as “Form 1”, the “Slurry output, solid form by PXRD” value ([1]; acetonitrile, Aw 0, 40° C., 2 weeks) is reported as “Form 1” and the “Slurry output, solid form by PXRD” value ([1]; acetonitrile/water, Aw 0.1, 5° C., 2 weeks) is reported as “Form 2”. The “Slurry output, solid form by PXRD” value ([1]; acetonitrile/water, Aw 0.1, 40° C., 2 weeks) was “Form 2”, the “Slurry output, solid form by PXRD” value ([1]; acetonitrile/water, Aw 0.1, RT, 2 weeks) was “Form 2” and the “Slurry output, solid form by PXRD” value ([1]; acetonitrile/water, Aw 0.3, 5° C., 2 weeks) was “Form 2”. The “Slurry output, solid form by PXRD” value ([1]; acetonitrile/water, Aw 0.3, 40° C., 2 weeks) was “Form 2”, the “Slurry output, solid form by PXRD” value ([1]; acetonitrile/water, Aw 0.3, RT, 2 weeks) was “Form 2” and the “Slurry output, solid form by PXRD” value ([1]; acetonitrile/water, Aw 0.5, 5° C., 2 weeks) was “Form 2”. The “Slurry output, solid form by PXRD” value ([1]; acetonitrile/water, Aw 0.5, 40° C., 2 weeks) was “Form 2”, the “Slurry output, solid form by PXRD” value ([1]; acetonitrile/water, Aw 0.5, RT, 2 weeks) was “Form 2” and the “Slurry output, solid form by PXRD” value ([1]; acetonitrile/water, Aw 0.75, 5° C., 2 weeks) was “Form 2”. The “Slurry output, solid form by PXRD” value ([1]; acetonitrile/water, Aw 0.75, 40° C., 2 weeks) was “Form 2”, the “Slurry output, solid form by PXRD” value ([1]; acetonitrile/water, Aw 0.75, RT, 2 weeks) was “Form 2” and the “Slurry output, solid form by PXRD” value ([1]; acetonitrile/water, Aw 0.9, 5° C., 2 weeks) was “Form 2”. For the same compound, the “Slurry output, solid form by PXRD” value ([1]; acetonitrile/water, Aw 0.9, 40° C., 2 weeks) was “Form 2”, the “Slurry output, solid form by PXRD” value ([1]; acetonitrile/water, Aw 0.9, RT, 2 weeks) was “Form 2” and the “Form conversion in slurry (summary)” value ([1]; anhydrous conditions (Aw=0)) was “no conversion to the hydrate Form 2 detected”. For the same compound, the “Slurry output, solid form by PXRD” value ([1]; methanol, Aw 0, 5° C., 2 weeks) was “Form 1”, the “Slurry output, solid form by PXRD” value ([1]; methanol, Aw 0, RT, 2 weeks) was “Form 1” and the “Slurry output, solid form by PXRD” value ([1]; methanol/water, Aw 0.1, 5° C., 2 weeks) was “Form 2”. The “Slurry output, solid form by PXRD” value ([1]; methanol/water, Aw 0.1, 40° C., 2 weeks) was “solvate”, the “Slurry output, solid form by PXRD” value ([1]; methanol/water, Aw 0.1, 40° C., 2 weeks, listed as Form 1) was “solvated material” and the “Slurry output, solid form by PXRD” value ([1]; methanol/water, Aw 0.1, RT, 2 weeks) was “Form 2”. For the same compound, the “Slurry output, solid form by PXRD” value ([1]; methanol/water, Aw 0.3, 5° C., 2 weeks) was “Form 2”, the “Slurry output, solid form by PXRD” value ([1]; methanol/water, Aw 0.3, 40° C., 2 weeks) was “solvate” and the “Slurry output, solid form by PXRD” value ([1]; methanol/water, Aw 0.3, 40° C., 2 weeks, listed as Form 1) was “solvated material”. For the same compound, the “Slurry output, solid form by PXRD” value ([1]; methanol/water, Aw 0.3, RT, 2 weeks) was “Form 2”, the “Slurry output, solid form by PXRD” value ([1]; methanol/water, Aw 0.5, 5° C., 2 weeks) was “Form 2” and the “Slurry output, solid form by PXRD” value ([1]; methanol/water, Aw 0.5, 40° C., 2 weeks) was “Form 2”. For the same compound, the “Slurry output, solid form by PXRD” value ([1]; methanol/water, Aw 0.5, RT, 2 weeks) was “Form 2”, the “Slurry output, solid form by PXRD” value ([1]; methanol/water, Aw 0.75, 5° C., 2 weeks) was “Form 2” and the “Slurry output, solid form by PXRD” value ([1]; methanol/water, Aw 0.75, 40° C., 2 weeks) was “Form 2”. The “Slurry output, solid form by PXRD” value ([1]; methanol/water, Aw 0.75, RT, 2 weeks) was “Form 2”, the “Slurry output, solid form by PXRD” value ([1]; methanol/water, Aw 0.9, 5° C., 2 weeks) was “Form 2” and the “Slurry output, solid form by PXRD” value ([1]; methanol/water, Aw 0.9, 40° C., 2 weeks) was “Form 2”. The “Slurry output, solid form by PXRD” value ([1]; methanol/water, Aw 0.9, RT, 2 weeks) was “Form 2”, the “Form conversion in slurry (summary)” value ([1]; water activities 0.1 to 0.9, temperatures from 5° C. to 40° C., 2 weeks) was “converts to the thermodynamically more stable lorlatinib maleate hydrate (Form 2)” and the “Output Solid Form” value ([2]; binary mixture with stearic acid) was “Form 2”. For the same compound, the “Solid form changes by PXRD (summary)” value ([2]; mixtures containing magnesium stearate) was “form changes after 2 weeks”, the “Solid form changes by PXRD (summary)” value ([2]; mixtures containing stearic acid) was “form changes after 1 week” and the “Output Solid Form” value ([2]; tertiary mixture with stearic acid, lactose) was “Form 2”. For the same compound, the “Output Solid Form” value ([2]; tertiary mixture with stearic acid, mannitol) was “Form 2”, the “Output Solid Form” value ([3]; tablet with DCP, magnesium stearate, Explotab) was “Form 1” and the “Output Solid Form” value ([3]; tablet with DCP, magnesium stearate, Polyplasdone XL) was “Form 1”. The “Output Solid Form” value ([3]; tablet with DCP, stearic acid, Explotab) was “Form 1”, the “Output Solid Form” value ([3]; tablet with DCP, stearic acid, Polyplasdone XL) was “Form 1” and the “Output Solid Form” value ([3]; tablet with mannitol, stearic acid, Polyplasdone XL) was “Form 1”. The “Slurry output, solid form by PXRD” value ([4]; acetonitrile, Aw 0, RT) was “Form 1”, the “Slurry output, solid form by PXRD” value ([4]; methanol, Aw 0, 40° C.) was “Form 1” and the “Stability with respect to lorlatinib maleate hydrate (Form 2)” value [5] was “meta-stable”. For the same compound, the “Solid Form (accelerated stability, PXRD)” value ([5]; 25° C./60% RH without desiccation, 3 months) was “Multiple new PXRD peaks were observed, which were consistent with Form 2”, the “Solid Form (accelerated stability, PXRD)” value ([5]; 40° C./75% RH without desiccation, 3 months) was “nearly complete conversion to Form 2” and the “Solid Form (accelerated stability, PXRD)” value ([5]; 75% RH, ambient temperature, 6 months, listed as Form 1) was “full conversion to Form 2”. For the same compound, the “Solid Form (accelerated stability, PXRD)” value ([5]; 75% RH, ambient temperature, 6 months, listed as anhydrous lorlatinib maleate Form 1) was “Form 2”, the “Solid Form (accelerated stability, PXRD)” value ([5]; 90% RH, ambient temperature, 6 months, listed as Form 1) was “full conversion to Form 2” and the “Solid Form (accelerated stability, PXRD)” value ([5]; 90% RH, ambient temperature, 6 months, listed as anhydrous lorlatinib maleate Form 1) was “Form 2”. The “Physical stability of representative drug product formulation relative to the acetic acid solvate of lorlatinib free base” value ([6]; drug product formulation) was “superior physical stability”, the “impurity (solid phase impurity), physical stability of drug product” value (“impurity (solid phase impurity)” below) ([6]; 50° C./75% RH, 2 weeks) was about 10% impurity and the “impurity (solid phase impurity)” value ([6]; 70° C./10% RH, 3 weeks) was about 10% impurity. The “impurity (solid phase impurity)” value ([6]; 70° C./40% RH, 2 weeks) was about 10% impurity and the “impurity (solid phase impurity)” value ([6]; 70° C./75% RH, 1 week) was about 10% impurity.
